Experimental data as given in publication PMC7329864, “Role of water in cyclooxygenase catalysis and design of anti-inflammatory agents targeting two sites of the enzyme” (Scientific Reports, 2020).
Where two headings read alike, the source gives them in different places.

What was measured:
Acute toxicity studies = type: in vivo
Method: (§1) Acute toxicity studies of 1 were carried out at 3 dose levels of 50 mg Kg^−1, 300 mg Kg^−1 and 2000 mg Kg^−1 by periodic monitoring for the first 24 h and daily monitoring for 14 days[56]. […] A few jumping movements were also observed. However, all these behaviours subsided after 60 min. […] Therefore, complying with the design and the results of in vitro studies, the in vivo experiments were gestured with the emergence of a new category of anti-inflammatory agents.
Acute Toxicity Studies[56]. Four groups of animals with three animals per group were taken. The first group was administered the vehicle and served as the control group, the second, third and the fourth groups were treated with 1 at doses of 50 mg Kg^−1, 300 mg Kg^−1 and 2000 mg Kg^−1, respectively. All the treatments were administered after 4 h of fasting. Thereafter, the animals were observed continuously for the first four hours and periodically for 24 h. After 14 days, one animal each in control and highest dose of 1 (2000 mg Kg^−1) was sacrificed and histological studies were conducted using H and E staining.
[56] OECD Guideline for testing of chemicals, 2001. Guideline 423: acute oral toxicity- acute toxic class method, 2001.

[1] = In-vivo pharmacokinetic studies
Method: as §1
In-vivo Pharmacokinetic studies were performed as per the previously reported protocol.

Swiss albino mice [2] = test: Formalin induced pain (flinchings), analgesic activity and mechanistic pretreatments; type: in vivo
Method: (§2) Since it is known to produce biphasic pain response—the neurogenic pain and the inflammatory phase, 2% formalin injection was given in the right hind paw of the animals (20 µL) and the response was quantified by counting the number of flinching after 30 min of the compound 1 treatment. The inflammatory phase has been reported in the current investigation since the cyclooxygenase inhibitors are known to ameliorate the latter phase. The involvement of cyclooxygenase and lipooxygenase pathways was studied by pretreatment with substance P and nitric oxide pathway was studied by pretreatment with L-arginine and L-NAME as previously described. Anti-inflammatory activity was examined by using carageenan induced paw edema as per the previous report.
(§3) Swiss albino mice of either sex (25–35 g) were used for determining the analgesic and anti-inflammatory activity of the compounds. The animals were maintained at 22 ± 2 °C under 12 h light/12 h dark cycle with free supply of food and water. The study was approved by the IAEC of Guru Nanak Dev University, Amritsar, Punjab, India. A total of six groups of animals with 5 animals in each group were used. The experimental procedure as described in our previous report[52],[57] was used for studying the analgesic and anti-inflammatory activity of the compounds. All the treatments were given intraperitoneally (i.p.).
Mechanistic studies. Three groups of mice with 5 animals in each group were taken for exploring the inhibition of COX and LOX and modulation of nitric oxide pathway. For COX and LOX pathways, the animals were pretreated with substance P, 30 min before administering 1. For nitric oxide pathway, animals were pretreated with nitric oxide precursor, L-arginine and NOS inhibitor, L-NAME, 30 min before administering 1. The details of the protocols are described in previous reports[52],[57].

COX-2 = molecular target: T1, COX-2 (Homo sapiens, UniProt P35354); test: UV-Vis and fluorescence studies of interaction with COX-2; type: binding
T1 sequence (P35354 18-604): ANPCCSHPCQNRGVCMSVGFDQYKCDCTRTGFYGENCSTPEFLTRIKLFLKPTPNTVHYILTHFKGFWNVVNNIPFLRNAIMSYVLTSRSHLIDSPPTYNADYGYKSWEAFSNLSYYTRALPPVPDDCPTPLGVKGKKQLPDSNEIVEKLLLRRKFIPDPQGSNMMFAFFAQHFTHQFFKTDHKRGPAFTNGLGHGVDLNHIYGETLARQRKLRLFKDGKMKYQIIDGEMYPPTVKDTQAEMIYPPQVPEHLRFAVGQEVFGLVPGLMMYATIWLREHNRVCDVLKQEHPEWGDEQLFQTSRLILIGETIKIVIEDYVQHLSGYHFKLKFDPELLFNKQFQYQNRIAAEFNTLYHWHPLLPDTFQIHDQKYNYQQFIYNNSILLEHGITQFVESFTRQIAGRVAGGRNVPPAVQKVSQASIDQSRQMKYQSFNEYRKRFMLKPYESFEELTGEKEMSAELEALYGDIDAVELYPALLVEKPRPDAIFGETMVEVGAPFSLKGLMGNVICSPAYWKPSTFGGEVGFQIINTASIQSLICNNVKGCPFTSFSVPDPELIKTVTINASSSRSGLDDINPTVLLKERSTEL
Text: In order to support in-silico experiments, the interactions of 1, 13d and 15d with COX-2 were checked with UV–vis and fluorescence spectral techniques. […] The appearance of level-off in the visible region (500–700 nm) was attributed to the Mie scattering due to the formation of aggregates. […] Corroborating the results of molecular modelling studies, the changes in the UV–Vis spectra as well as the fluorescence spectrum of the compound on addition of COX-2 probably occurred due to the HOMO–LUMO interactions between 1 and the enzyme (Figure S26). The linear Stern–Volmer plot of decrease in fluorescence intensity at 567 nm on increasing COX-2 concentration gave Stern–Volmer constant Ksv 3.30 × 10^4 M^-1. The detection limit of the compound for COX-2 was 0.02 nM (Figure S26C,D).
In order to support in-silico experiments, the interactions of 1, 13d and 15d with COX-2 were checked with UV-vis and fluorescence spectral techniques. […] The appearance of level-off in the visible region (500-700 nm) was attributed to the Mie scattering due to the formation of aggregates. […] Corroborating the results of molecular modelling studies, the changes in the UV-Vis spectra as well as the fluorescence spectrum of the compound on addition of COX-2 probably occurred due to the HOMO-LUMO interactions between 1 and the enzyme (Figure S27). The linear Stern-Volmer plot of decrease in fluorescence intensity at 567 nm on increasing COX-2 concentration gave Stern-Volmer constant Ksv 3.30x10^4 M^-1. The detection limit of the compound for COX-2 was 0.02 nM (Figure 27C, 27D).

Swiss albino mice [3] = test: Carageenan induced paw edema, anti-inflammatory activity; type: in vivo
Method: as §2, §3

In the case of `O=C1NC(=O)C(=Cc2cn(CCCCCCn3c4ccccc4c(=O)c4ccccc43)c3ccccc23)C(=O)N1` [Compound 1], the “histological examination of liver, kidney and myocardium” value (Acute toxicity studies; 2000 mg Kg^−1, after 14 days, H and E staining, a few areas of congestion in myocardium and kidney) is reported as “grossly unremarkable”, the “mortality in acute toxicity study” value (Acute toxicity studies; 50, 300 and 2000 mg Kg^−1, oral, 14 days of observation) is reported as “No mortality” and the “behavioural observations in acute toxicity study” value (Acute toxicity studies; first 60 min after oral administration, subsided after 60 min) is reported as “excessive licking, sniffing, grooming and restless movements”. For the same molecule, the Cmax ([1]; Animal 1) was 3150 nM, the Tmax ([1]; Animal 1) was 0.5 h and the AUC(0-t) ([1]; Animal 1, read-out: AUC(0–1440 min) (converted)) was 21.4 µM·h. It also gave a half-life ([1]; Animal 1, read-out: T1/2) of 11.2 h, a Cmax ([1]; Animal 2) of 2860 nM and a Tmax ([1]; Animal 2) of 0.25 h. The AUC(0-t) ([1]; Animal 2, read-out: AUC(0–1440 min) (converted)) was 19.7 µM·h, the half-life ([1]; Animal 2, read-out: T1/2) was 6.96 h and the Cmax ([1]; Animal 3) was 2600 nM. The Tmax ([1]; Animal 3) was 0.5 h, the AUC(0-t) ([1]; Animal 3, read-out: AUC(0–1440 min) (converted)) was 20.2 µM·h and the half-life ([1]; Animal 3, read-out: T1/2) was 8.68 h. The Tmax ([1]; Mean) was 0.417 h, the AUC(0-t) ([1]; Mean, read-out: AUC(0–1440 min) (converted)) was 20.4 µM·h and the half-life ([1]; Mean, read-out: T1/2) was 8.95 h. For the same molecule, the half-life ([1]; read-out: half life (T1/2) (converted)) was roughly 9 h, the “reversal of formalin induced analgesia” value (Swiss albino mice [2]) was 90% and the “number of flinchings in neurogenic and inflammatory phase of formalin induced pain” value (Swiss albino mice [2]; 10 mg kg^−1, i.p., 2% formalin 30 min after treatment, comparable to indomethacin) was “significant decrease”. The “modulation (attenuation) of analgesic effect by L-NAME pretreatment” value (Swiss albino mice [2]; L-NAME (NOS inhibitor) 30 min before compound) was “did not”, the “modulation of analgesic effect by L-arginine pretreatment” value (Swiss albino mice [2]; L-arginine (NO precursor) 30 min before compound) was “attenuated the analgesic effect of 1 partially” and the “modulation of analgesic effect by Substance P pretreatment” value (Swiss albino mice [2]; Substance P 30 min before compound, complete reversal not evident) was “attenuated the analgesic effect”. The “decrease in fluorescence intensity (quenching) in the presence of COX-2” value (COX-2; addition of COX-2 in Tris–HCl buffer pH 7.25 to solution of compound) was “significant quenching”, the “detection limit of the compound for COX-2” value (COX-2; fluorescence intensity at 567 nm vs [COX-2], Tris–HCl buffer pH 7.25) was 0.02 nM and the “Stern–Volmer constant Ksv” value (COX-2; fluorescence quenching at 567 nm by COX-2, 0.5 µM compound, Tris–HCl buffer pH 7.25) was 33000 M⁻¹. For the same molecule, the “reversal of carageenan induced inflammation” value (Swiss albino mice [3]) was 90% and the “paw volume after carageenan injection” value (Swiss albino mice [3]; i.p., comparable to indomethacin) was “significant decrease”.
